Patent US6693167B1, “Peptide-based gemini compounds” (SmithKline Beecham p.l.c., priority 1997, dated 2004)

How the values were obtained:
Type in all cases: cell-based
CHO-K1 cells [1] = experiment: Transfection of luciferase plasmid into CHO-K1 cells
Procedure: CHO-K1 cells (ATCC: CRL-9618) were seeded into T25-culture flasks (Corning-Costar Buckinghamshire, UK), at 7×10^5 cells per flask, 24 hours prior to transfection. The CHO-K1 cells were seeded in 5 ml MEM alpha medium with ribonucleosides and deoxyribonucleosides and supplemented with 1×L-glutamine and 10% v/v foetal bovine serum (complete medium). The cells were grown at 37° C. in 5% CO2 in a humidified atmosphere.
For transfection, 5 ug DNA (luciferase control plasmid) was incubated with the gemini compounds in water (final volume 400 μl). The peptide-based gemini compounds were made up at 1 mg ml^−1 in tissue culture grade water and then diluted to the appropriate concentration to a total volume of 200 μl. Following a 30 minute room temperature incubation, 2.6 ml OPTI-MEM® medium was added and the solution placed on the cells. Following an overnight incubation at 37° C., the transfection solution was replaced with complete medium and the cells incubated at 37° C. 24 hours post transfection the cells were detached from the flask and seeded into 96-well plates at a density of 0.5×10^5 cells per well and incubated for a further 24 hours at 37° C. Luciferase reporter gene assays were performed according to the manufacturers instructions (Roche Diagnostics, Mannheim, Germany) approximately 48 hours post transfection. The plates were left for a 15 minutes adaption period in the dark before counting for 60 seconds in a TopCount NXT counter (Canberra Packard). An average of eight wells were counted per transfection.
Control transfections were set up with no DNA, an anionic gemini compound and the commercially available reagent LipofectAmine PLUS™.

CHO-K1 cells [2] = experiment: Transfection of luciferase plasmid into CHO-K1 cells in combination with supplements (DOPE, PLUS)
Procedure: The transfection ability of the gemini compounds could be further enhanced by the addition of a neutral carrier, for example, dioleyl phosphatidylethanolamine (DOPE) (Farhood, H., et al (1985) Biochim. Biophys. Acta 1235 289) or a complexing reagent, for example, PLUS compound (Life Technologies Inc.). […] Transfection mediated by compound 55 with DOPE in a 2:1 ratio and the addition of 11.6 ul of PLUS compound lead to a mean count of 6.5×10^5 cps representing a 12-fold increase of luciferase activity in comparison to compound 55 alone. Incubation of the PLUS compound with the DNA and combination with compound 55 alone also lead to a 4-fold increase.

HEK293 cells = experiment: Transfection of luciferase plasmid into HEK293 cells
Procedure: All tissue culture reagents were obtained from Life Technologies Inc. HEK 293 cells were seeded at 2-3×10^5 cells per well in Nunc six-well culture plates, 24 hours prior to transfection. The cells were seeded in 2 mls Dulbeccos Modified Eagle medium containing Earles salts and supplemented with 10% v/v foetal bovine serum (=complete medium). The cells were grown at 37° C. in 5% CO2 in a humidified atmosphere. 6 ug DNA (“luciferase control plasmid” from Promega Corp.) were dissolved in 100 ul serum free medium (OPTI-MEM®). The peptide-based gemini compounds were made up at 1 mg/ml in tissue culture grade water and then diluted in OPTI-MEM® to the appropriate concentration to a final volume of […]. The DNA and gemini solutions were mixed (to a total volume of 200 ul; final concentrations of 5, 25, 50, 100, 150, 200, 250 and 300 ug/ml) and left at room temperature for 15 minutes. The DNA/gemini mix was placed onto the cells in each well and left in contact for 18-20 hours. The cells were then washed twice with phophate buffered saline prior to 1 ml of fresh complete medium being added. Cells were incubated for a further 24 hours prior to lysis and luciferase activity assayed.
All luciferase activity assays were performed using the Canberra Packard (Berkshire, UK) Luclite kit according to the manufacturer's instructions with the exception that the cells in each well were resuspended in 1 ml lysis buffer and 10 ul aliquots mixed with 100 ul of the luciferase substrate. The reaction mix was left for a 15 minutes adaptation period in the dark before counting for 5 minutes in a Top Count scintillation counter. Luciferase activity is measured as counts per second (CPS) from the scintillation counter. Four independent counts were taken per well.
Control transfections were set up with no DNA, CaPO4, an anionic gemini compound (1) and the commercially available lipofection reagents LipofectAmine™ and Lipotaxi™ at the manufacturers recommended concentrations (10, 25, 50, 75, 125 ug/ml and 175, 250, 325, 400 and 500 ug/ml respectively).

[3] = compound 55 with DOPE 2:1 plus 11.6 ul PLUS compound

## CCCCCCCCCCCCNC(=O)C(CO)NC(=O)C(CSCCSCC(NC(=O)C(N)CCCCNC(=O)C(N)CCCCN)C(=O)NC(CO)C(=O)NCCCCCCCCCCCC)NC(=O)C(N)CCCCNC(=O)C(N)CCCCN.Cl.Cl.Cl.Cl (stereo not shown) [Compound 55]
CHO-K1 cells [1]
  Efficiency in facilitating transfection of the luciferase plasmid: very efficient
CHO-K1 cells [1]; 5 ug luciferase control plasmid, mean of 8 wells
  Luciferase activity, mean count at most effective concentration: about 2.4×10^5 cps
CHO-K1 cells [1]; luciferase control plasmid
  Most effective (peak) concentration for transfection: 30 µM
CHO-K1 cells [2]; PLUS compound incubated with the DNA, combined with compound 55 alone (no DOPE)
  Increase of luciferase activity: 4 fold
CHO-K1 cells [2]; compound 55 and DOPE at 2:1 ratio
  Increase of luciferase activity: 9 fold
CHO-K1 cells [2]; [3]
  Increase of luciferase activity in comparison to compound 55 alone: 12 fold
  Luciferase activity, mean count: 6.5×10^5 cps
HEK293 cells; at concentrations above 150 ug/ml
  Efficiency in facilitating transfection of the luciferase plasmid: very efficient
HEK293 cells; luciferase control plasmid
  Most effective (peak) concentration for transfection: 300 µg/mL
HEK293 cells; luciferase control plasmid, at the agent's most effective concentration, mean of 4 independent counts
  Luciferase activity, mean count at peak efficiency: about 45,000 cps
